Numbers after ± are expanded uncertainties.
Experiments:
[1] = 298.15 K; 101.33 kPa; Liquid; Vibrating tube method
[2] = refractive index (Na D-line) (dimensionless); settings: 298.15 K; 101.33 kPa; Liquid; Standard Abbe refractometry

Work on `CCOS(=O)(=O)[O-].CC[n+]1cccc(C)c1` [1-ethyl-3-methylpyridinium ethylsulfate] yielded a mass density [1] of 1219.61 ± 1.1 kg/m3 and a refractive index [2] of 1.50591 ± 0.00075.
